# According to patent US10213415B2, “Compounds as opioid receptor modulators” (JANSSEN PHARMACEUTICA NV, priority 2004, dated 2019):
# Where “and” joins values, the source holds several entries; their conditions need not be identical. Equal values may be shown once. Read-outs that look alike come from different tables or passages of the source.
# Key:
# human mu opioid receptor = target: T1, human mu opioid receptor (Homo sapiens, UniProt P35372); experiment: Human Mu Opioid Receptor Binding Assay (CHO membranes, 3H-Damgo); conditions: read-out: hKi μ
# T1 construct: purchased Perkin Elmer RBHOMM400UA; host or cells: Chinese Hamster Ovary cells (recombinant expression)
# T1 sequence (P35372 whole entry): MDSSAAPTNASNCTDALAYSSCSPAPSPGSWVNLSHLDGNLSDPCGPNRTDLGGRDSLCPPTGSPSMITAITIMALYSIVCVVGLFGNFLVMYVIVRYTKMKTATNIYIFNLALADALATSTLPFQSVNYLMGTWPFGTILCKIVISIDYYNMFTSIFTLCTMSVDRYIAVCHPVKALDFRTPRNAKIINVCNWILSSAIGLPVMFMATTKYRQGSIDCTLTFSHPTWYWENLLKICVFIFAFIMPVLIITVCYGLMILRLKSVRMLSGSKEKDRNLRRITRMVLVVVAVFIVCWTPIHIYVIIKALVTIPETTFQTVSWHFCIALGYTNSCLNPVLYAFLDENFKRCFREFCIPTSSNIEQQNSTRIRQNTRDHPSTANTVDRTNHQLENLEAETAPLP
# Outline: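 Radioligand displacement of ³H-Damgo (diluted to 3.6 nM pre-mix) from recombinant human mu receptor in CHO membranes, 2 h, room temperature, 50 mM Tris pH 7.5 with 5 mM MgCl2. Bound label read by filtration and scintillation counting; 1 μM unlabelled Damgo defines nonspecific binding.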
# [1] = target: T2, human delta subtype 2 opioid receptor (Homo sapiens, UniProt P41143); experiment: Human Delta Opioid Receptor Binding Assay (CHO membranes, 3H-Naltrindole); conditions: read-out: hKi δ
# T2 construct: purchased Perkin Elmer RBHODM400UA; host or cells: Chinese Hamster Ovary cells (recombinant expression)
# T2 sequence (P41143 whole entry): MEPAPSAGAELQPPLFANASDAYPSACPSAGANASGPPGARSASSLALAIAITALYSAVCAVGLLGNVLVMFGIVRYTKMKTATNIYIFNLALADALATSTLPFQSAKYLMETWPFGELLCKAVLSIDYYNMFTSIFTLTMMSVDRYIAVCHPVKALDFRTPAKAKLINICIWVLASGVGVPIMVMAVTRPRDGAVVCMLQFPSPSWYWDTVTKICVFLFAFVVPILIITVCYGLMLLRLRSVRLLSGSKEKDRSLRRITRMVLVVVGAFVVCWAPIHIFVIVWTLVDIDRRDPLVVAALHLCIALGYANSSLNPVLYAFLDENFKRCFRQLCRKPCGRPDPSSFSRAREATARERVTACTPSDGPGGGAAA
# Method: This assay is designed to test the ability of a compound to interfere with the binding of tritiated Naltrindole to the human delta subtype 2 opioid receptor. Membranes from Chinese Hamster Ovary cells expressing the human delta subtype 2 opioid receptor (Perkin Elmer #RBHODM400UA) are homogenized in assay buffer (50 mM Tris, pH 7.5 with 5 mM MgCl2) using a glass tissue grinder, Teflon pestle and a Steadfast Stirrer (Fisher Scientific). The concentration of membranes is adjusted to 100 μg/mL in assay buffer and 100 μL is dispensed into each well of the assay plate, a 96 well round bottom polypropylene plate. Compounds to be tested are solubilized in DMSO (Pierce), 10 mM, then diluted in assay buffer to 6× the desired final concentration. The ligand, ^3H-Naltrindole (Perkin Elmer #NET-1065) is also diluted in assay buffer to 6 nM. In a second 96 well round bottom polypropylene plate, known as the premix plate, 60 μL of the 6× compound is combined with 60 μL of 6 nM ^3H-Naltrindole. From this premix plate 50 μL is transferred to the assay plate containing the membranes, in duplicate. The assay plate is incubated for 30 min at room temperature. A GF/C 96 well filter plate (Perkin Elmer #6005174) is pretreated with 0.3% polyethylenimine for 30 min. The contents of the assay plate are filtered through the filter plate using a Packard Filtermate Harvester, and washed 3 times with 0.9% saline that is 4° C. The filter plate is dried, the underside sealed, and 30 μL Microscint20 (Packard #6013621) added to each well. A Topcount-NXT Microplate Scintillation Counter (Packard) is used to measure emitted energies in the range of 2.9 to 35 KeV. Results are compared to maximum binding, wells receiving no inhibitors. Nonspecific binding is determined in the presence of 1 μM unlabelled Naltrindole (Sigma #N115).
# [2] = system: novel environment-stressed mice; experiment: In Vivo Assay-Stress-Induced Fecal Output (Fecal Output for 1 hr); design: species or system mouse; conditions: for Fecal Output (# pellets) cpd: novel environment-stressed mice; for response vs control in vivo at 30 mg/kg / response vs control in vivo at 10 mg/kg: Mus musculus, po, 1 h; for # of pellets, Compound (m) 3.0 / Fecal pellet output, Compound (% control) 3.0 / Fecal pellet output, Compound (% NES) 3.0: dose 3.0, oral; for # of pellets, Compound (m) 3.0 / Fecal pellet output, Compound (% control) 3.0 / # of pellets, Compound (m) 10.0 / Fecal pellet output, Compound (% control) 10.0 / # of pellets, Compound (m) 30.0 / Fecal pellet output, Compound (% control) 30.0: NES mice; for # of pellets, Compound (m) 3.0 / # of pellets, Compound (m) 10.0 / # of pellets, Compound (m) 30.0: fecal output 1 hr; for Fecal pellet output, Compound (% control) 3.0 / Fecal pellet output, Compound (% control) 10.0 / Fecal pellet output, Compound (% control) 30.0: vs acclimated control; for Fecal pellet output, Compound (% NES) 3.0 / Fecal pellet output, Compound (% NES) 10.0 / Fecal pellet output, Compound (% NES) 30: vs vehicle NES group; for # of pellets, Compound (m) 10.0 / Fecal pellet output, Compound (% control) 10.0 / Fecal pellet output, Compound (% NES) 10.0: dose 10.0, oral; for # of pellets, Compound (m) 30.0 / Fecal pellet output, Compound (% control) 30.0: dose 30.0, oral; for Fecal pellet output, Compound (% NES) 30: dose 30, oral
# Source text: This assay evaluates the fecal output in novel environment-stressed mice to that of acclimated controls.
# Methods: Adult, male, Crl:CD-1(ICR) mice, weighing ˜30-35 g were used in these studies, with a minimum of 10 mice per dose group. One group of mice was assigned as acclimated, or “non-stressed” controls. These control mice were transported from colony housing, where they were housed 3/cage in polycarbonate cages with access to food and water ad lib. to the procedure room. The mice were removed from their home cages and individually housed in 20 cm wide×20 cm deep×15 cm tall cages, equipped with a wire mesh bottom where they remained for a 16-18 hr period of acclimation to their novel environment. Mice were allowed access to food and water ad lib. during acclimation. The other groups of mice were assigned as non-acclimated, or “stressed” treatment groups. Each mouse in each group was weighed and vehicle, or test compound, was intragastrically administered by oral intubation in 0.5% methylcellulose. Mice were allowed access to water only ad lib. during the test period. After compound administrations, acclimated (control) as well as non-acclimated (stressed) mice were individually housed in a 20 cm wide×20 cm deep×15 cm tall cage, with a wire mesh bottom. An absorbant cardboard is placed beneath the cages. The number of fecal pellets excreted by each mouse was determined at hourly intervals following placement of the mice in the individual cages. Raw Data=# of fecal pellets/mouse/hr. […]
# [3] = 30 mg/kg oral, relative to acclimated control, 1 hr, read-out: Fecal Output cpd % control
# [4] = 30 mg/kg oral, relative to novel environment stress (NES) vehicle group, 1 hr, read-out: Fecal Output cpd % NES
SMILES,Ki (human mu opioid receptor) [nM],Ki [1] [nM],"Fecal Output (# pellets) cpd ([2]; 30 mg/kg oral, 1 hr) [pellets]","response vs control in vivo at 30 mg/kg [2, 3] [%]","response vs control in vivo at 30 mg/kg [2, 4] [%]","Fecal Output cpd % control ([2]; 30 mg/kg oral, relative to acclimated control, 1 hr) [%]","Fecal Output cpd % NES ([2]; 30 mg/kg oral, relative to novel environment stress (NES) vehicle group, 1 hr) [%]","# of pellets, Compound (m) 3.0 [2]","Fecal pellet output, Compound (% control) 3.0 [2]","Fecal pellet output, Compound (% NES) 3.0 [2]","# of pellets, Compound (m) 10.0 [2]","Fecal pellet output, Compound (% control) 10.0 [2]","Fecal pellet output, Compound (% NES) 10.0 [2]","# of pellets, Compound (m) 30.0 [2]","Fecal pellet output, Compound (% control) 30.0 [2]","Fecal pellet output, Compound (% NES) 30 [2]","Fecal Output (# pellets) cpd ([2]; 10 mg/kg oral, 1 hr) [pellets]","response vs control in vivo at 10 mg/kg ([2]; 10 mg/kg oral, relative to acclimated control, 1 hr, read-out: Fecal Output cpd % control) [%]","response vs control in vivo at 10 mg/kg ([2]; 10 mg/kg oral, relative to novel environment stress (NES) vehicle group, 1 hr, read-out: Fecal Output cpd % NES) [%]"
Cc1cc(O)cc(C)c1C[C@H](N)C(=O)N(Cc1ccc(Cl)cc1Cl)[C@@H](C)c1nc(-c2ccccc2)c[nH]1 [Cpd 103],23,9.7,10.2,140,79.1,,,,,,,,,,,,,,
Cc1cc(C(N)=O)cc(C)c1C[C@H](N)C(=O)N(C(C)C)[C@@H](CO)c1nc(-c2ccccc2)c[nH]1 [Cpd 85],5.4,1170,7.9,146,65.8,,,,,,,,,,,,,,
Cc1cc(C(N)=O)cc(C)c1C[C@H](N)C(=O)N(Cc1ccccc1)Cc1nc(-c2ccccc2)c[nH]1 [Cpd 107],2.95,584,13.1,230,87.3,,,,,,,,,,,,,,
"Cc1cc(C(N)=O)cc(C)c1C[C@H](N)C(=O)N(C(C)c1ccccc1)[C@@H](C)c1nc(-c2ccccc2)c[nH]1 (single isomer, unassigned) [Cpd 111]",6.4,307,4.4,,,60.8,42.5,,,,,,,,,,,,
Cc1cc(C(N)=O)cc(C)c1C[C@H](N)C(=O)N(Cc1ccccc1)[C@@H](C)c1nc(-c2ccc(Cl)cc2)c(C)[nH]1 [Cpd 58],8.5,70,3.9,170,55.7,,,,,,,,,,,,,,
Cc1cc(O)cc(C)c1C[C@H](N)C(=O)N(Cc1ccncc1)[C@@H](C)c1nc(-c2ccccc2)c[nH]1 [Cpd 57],0.66,2.2,7.6,195,53.9,,,,,,,,,,,,,,
CNc1ccc(CN(C(=O)C(N)Cc2c(C)cc(O)cc2C)C(C)c2nc(-c3ccccc3)c[nH]2)cc1 (centres unmarked) [Cpd 78],2.4,28.9,3.3,91.7,45.2,,,,,,,,,,,,,,
Cc1cc(C(N)=O)cc(C)c1C[C@H](N)C(=O)N(Cc1nc(-c2ccccc2)c[nH]1)[C@@H](C)c1ccccc1 [Cpd 95],7.8,278,8.5,315,93.4,,,,,,,,,,,,,,
Cc1cc(O)cc(C)c1C[C@H](N)C(=O)N(Cc1cccnc1)[C@@H](C)c1nc(-c2ccccc2)c[nH]1 [Cpd 92],0.25,5.4,9.2,256,82.9,,,,,,,,,,,,,,
Cc1cc(O)cc(C)c1C[C@H](N)C(=O)N(Cc1c(Cl)cccc1Cl)[C@@H](C)c1nc(-c2ccccc2)c[nH]1 [Cpd 97],19.2,6.3,4.8,65.8,37.2,,,14 and 9.1,226.2 % control and 189.6 % control,119 % NES and 90.1 % NES,7.5 and 10.4,123.0 % control and 216.7 % control,64.66 % NES and 103 % NES,3.5 and 2.3,57 % control and 48 % control,30.17 % NES and 22.77 % NES,,,
Cc1cc(O)cc(C)c1C[C@H](N)C(=O)N(Cc1ccccn1)[C@@H](C)c1nc(-c2ccccc2)c[nH]1 [Cpd 93],0.9,9.5,5.0,139,45,,,6.2,229.6 % control,74.7 % NES,5.5,203.7 % control,66.27 % NES,3.2,119 % control,38.55 % NES,,,
Cc1cc(C(N)=O)cc(C)c1C[C@H](N)C(=O)N(C(C)C)[C@@H](C)c1nc(-c2ccccc2)c[nH]1 [Cpd 143],1.6,69,5.2,69.3,56.5,,,,,,,,,,,,9.1,246,66.9
COc1ccc(CN(C(=O)[C@@H](N)Cc2c(C)cc(O)cc2C)[C@@H](C)c2nc(-c3ccccc3)c[nH]2)cc1OC [Cpd 102],3.5,5.2,3.4,59.6,22.7,,,6.9,130.2 % control,64.5 % NES,4.5,84.9 % control,42.06 % NES,2.22,42 % control,20.77 % NES,,,
Cc1cc(C(N)=O)cc(C)c1C[C@H](N)C(=O)N(C)[C@H](C)c1nc(-c2ccccc2)c[nH]1 [Cpd 144],1.3,251,11.5,311,84.6,,,,,,,,,,,,,,
Cc1cc(O)cc(C)c1C[C@H](N)C(=O)N(Cc1nc(-c2cccc(C(=O)O)c2)c(C)[nH]1)C(C)C [Cpd 133],11.5,108,9.9,180,81.8,,,,,,,,,,,,,,
Cc1cc(O)cc(C)c1C[C@H](N)C(=O)N(Cc1ccoc1)[C@@H](C)c1nc(-c2ccccc2)c[nH]1 [Cpd 55],1.8,44,8.3,213,58.9,,,,,,,,,,,,,,
